US6582714B1, “Article for insert control by passive evaporation of an active ingredient” (priority 1995, dated 2003)

Assays:
[1] = Volatility index calculation (concentration in air from vapor pressure); assay type: physicochemical; settings: for CONCENTRATION IN AIR: calculated from vapor pressure by ideal gas equation, 20 to 25° C.; for VOLATILITY INDEX: concentration in the air relative to DEET at 20 to 25° C.
A. aegypti mosquitoes [2] = test: Activity index calculation (volatility index x weight index); settings: volatility index multiplied by weight index; DEET = 1.00
Protocol: The “activity index” is obtained by the multiplying the volatility index and the weight index. The activity index is an attempt to predict the combined effect of volatility and potency by weight in the usefulness of an insect control active ingredient for insect control of flying insects by passive evaporation. The following activity indices were calculated from the volatility and weight indices given, above: […]

A. aegypti mosquitoes [3] = test: Olfactometer test (repellency from target air stream); assay type: in vivo; settings: for mg to reach RD90: dose at which 90% of control population driven from target, 28 x 10 cm filter paper, female mosquitoes; for WEIGHT INDEX: ratio of weight of ingredient versus weight of DEET to achieve RD90, 25° C.
Description: The olfactometer test provides a means for measuring the effect of a volatile active ingredient on flying insects under precisely controlled conditions. Mosquitoes are used as the test insect. In this and the other Examples, below, the mosquitoes were A. aegypti. The olfactometer used for the olfactory tests described below generates two uniform, laminar flow air streams. These air streams consist of a target air stream superimposed upon and centered within a carrier air stream.
The olfactometer provides a square testing surface with an area of 929 cm^2. The testing area consists of a circular target area of 42 cm^2 centered on a square background surface area of 887 cm^2. In the tests described, a 200 ml/min flow of carbon dioxide was introduced into the carrier air stream to activate the mosquitoes. […] The flow rate of the carrier air stream was 300 to 350 liters/min. […] Elevated temperature and humidity at the level described for the target air stream are known to be attractive to mosquitoes. The flow rate of the target air stream was 12 liters/min.
The olfactometer has an air flow duct through which the carrier air flow strewn passes. A glass cylinder having one closed and one open end, an internal diameter of 6 cm and a depth of 14 cm is located within the air flow duct, with the longitudinal axis of the glass cylinder oriented parallel to the direction of flow of the carrier air flow stream, with the open end of the cylinder pointing down stream. The target air stream is generated by releasing a flow of temperature and humidity conditioned air into the glass cylinder near its closed end, from which point the air flows the length of the glass cylinder to exit at its open end.
Active insect control ingredients to be tested are impregnated in a filter paper test substrate (Grade 615 from VWR Scientific Inc.) having a length of 28 cm and a width of 10 cm. The filter paper test substrate is folded into a fluted cylinder and inserted coaxially within the glass cylinder to rest at a location between the point where the air is released into the glass cylinder and the open end of the glass cylinder. By this arrangement, the target air stream is caused to pass over the surface of the filter paper test substrate so that any active insect control ingredient present in the filter paper test substrate may evaporate into the target air stream before the target air stream exits the glass cylinder to continue, embedded within the flow of the carrier air stream.
Cubic test cages having 30.5 cm edges were constructed of four glass panels, with two opposing sides of the cubic test cages being open. One open side was designated the test panel and was covered with an airflow-transmitting, mosquito-retaining mesh. The opposite open side was covered with a closeable sleeve made of a tubular, open-weave, mosquito-retaining fabric well known in the art as “stockinet.” For any given test, the test cage normally contained from 250 to 350 female mosquitoes.
The test cage was placed in the air stream with the test panel facing and perpendicular to the direction of flow of the air streams of the olfactometer. In order to allow the mosquitoes to become activated by the carbon dioxide of the air streams, the test cage first was placed in the olfactometer for an initial 5 minute conditioning exposure. The test cage then was removed from the olfactometer for 3 minutes and then placed back in the olfactometer for a second 5 minute conditioning exposure. The test cage was again removed from the olfactometer for 3 minutes, during which time a control filter paper test substrate was inserted within the glass cylinder of the olfactometer. The test cage was then placed on the olfactometer for a 10 minute control exposure. The same procedure was repeated, using each time a filter paper test substrate impregnated with increasing amounts of active insect control ingredient. […]

A. aegypti mosquitoes [4] = test: Chamber test, first series (box fan), mosquito repellency and knock-down; assay type: in vivo; settings: at least 50% repellency within 20 minutes with not more than a gram
Description: (§1) The chamber test protocol was developed to realistically model actual use conditions for the insect control article of the invention. A closed, generally featureless, approximately 28 m^3, box-like test chamber is used, the size of a small room. Six mosquito knock-down cages are distributed vertically within the test chamber, suspended from poles adjacent to opposite test chamber side walls, where they can be observed from outside the test chamber through chamber windows. Mosquitoes in the cages are observed during a test to evaluate the ability of a material being tested to knock down mosquitoes. An insect “knocked down” is one that is incapable of flying and usually is moribund in appearance. The insect may or may not actually be dead. The knock-down cages are cylindrical, approximately 6 cm long and 8 cm in diameter, and have screened but otherwise open ends.
(§2) Two repellency mosquito cages are also provided. The repellency cages are box-like screened cages, approximately 73 cm long and 16 cm square in cross section. All of the walls of the repellency cages are screened but otherwise generally open. Each repellency cage is divided by a clear plastic partition into a first holding area, which occupies approximately 45 cm of the length of the cage, and a second holding area, which occupies the remaining 28 cm. The plastic partition has a 4 cm diameter hole in its center that provides the only route by which mosquitoes may pass between the two holding areas. The repellency cages are mounted in a test chamber wall, with the plastic partition located in the plane of the test chamber wall, and are so oriented that the first holding area projects inwardly, into the test chamber, while the second holding area projects through the test chamber wall, out into normal room air.
(§3) A mouse cage essentially identical to a mosquito knock-down cage is mounted on the end of the first holding chamber of each repellency test cage that faces toward the interior of the test chamber. The mouse cage is separated from the repellency cage only by a mosquito-proof screen. One mouse is placed in the mouse cage during a test to provide an attractant for mosquitoes being held in the repellency test cage. Mosquitoes in the first holding area of a repellency cage thus are attracted toward the mouse, on the one hand, and repelled by the insect control article being tested, on the other hand.
(§4) When a test is run, fifty female mosquitoes are placed in the first holding area of each mosquito cage, with the partition hole closed by a removable door. Ten female mosquitoes are placed in each knock-down cage. The insect control article to be tested is placed centrally within the test chamber and the air flow is initiated. At timed intervals up to a total testing period of two hours, each knock-down cage and each repellency cage is visually examined, and the location, number, and condition of the mosquitoes are noted. The number of mosquitoes that have been driven to the second holding area provides a measure of the repellency of the insect control article being tested. The number of mosquitoes knocked down in the knock-down cages is also recorded. The general success of an insect control article is judged by both the mosquitoes repelled and those knocked down, in that both effects reduce the total number of mosquitoes available for biting.
Two series of tests were run using the chamber test protocol to evaluate the effect of insect control articles made in accordance with the invention. […]

A. aegypti mosquitoes [5] = test: Chamber test, second series (small blower, 0.06 m^3 per minute); assay type: in vivo
Description: as §1, §2, §3, §4
In an additional series of tests using the chamber protocol, two insect control active ingredients were tested for their ability to achieve the preferred practical control level, defined above. The experiment of the first series was substantially repeated except that the substrate was a 0.5 cm thick, 4.5 cm diameter coil of common corrugated cardboard, with the channels of the corrugation presented endwardly to the direction of air flow. […]

[6] = 0.5 cm thick, 4.5 cm diameter corrugated cardboard coil, blower 0.06 m^3 per minute, two hour test, NA = not achieved
[7] = 0.072 gm applied directly to the nine blades of the small blower, 0.06 m^3 per minute, two hour testing period

| Compound | CONCENTRATION IN AIR [1] | VOLATILITY INDEX [1] | ACTIVITY INDEX (A. aegypti mosquitoes [2]) | mg to reach RD90 (A. aegypti mosquitoes [3]) | WEIGHT INDEX (A. aegypti mosquitoes [3]) | practical insect control as defined (minimum practical control standard) (A. aegypti mosquitoes [4]) | Minutes to RD50 (A. aegypti mosquitoes [5]; [6]) | KD50 (A. aegypti mosquitoes [5]; [7]) | RD50 (A. aegypti mosquitoes [5]; [7]) | RD90 (A. aegypti mosquitoes [5]; [7]) | Minutes to KD50 (A. aegypti mosquitoes [5]; [6]) | Minutes to RD90 (A. aegypti mosquitoes [5]; [6]) |
| --- | --- | --- | --- | --- | --- | --- | --- | --- | --- | --- | --- | --- |
| Cc1c(F)c(F)c(COC(=O)[C@@H]2[C@H](/C=C(\Cl)C(F)(F)F)C2(C)C)c(F)c1F (racemic) [Tefluthrin] | 1.37 × 10^−5 grams per liter | 0.797 | 0.011 | 1.3 milligrams/filter paper test substrate | 0.014 |  |  |  |  |  |  |  |
| C=CCC1=C(C)C(OC(=O)C2C(C=C(C)C)C2(C)C)CC1=O (stereo not drawn) [Allethrin (90% active), Allethrin] | 1.92 × 10^−6 grams per liter | 0.112 | 0.0095 | 8.0 milligrams/filter paper test substrate | 0.085 |  |  |  |  |  |  |  |
| C=CCC1=C(C)C(OC(=O)[C@@H]2[C@@H](C=C(C)C)C2(C)C)CC1=O (stereo partly drawn) [Bioallethrin] | 1.46 × 10^−6 grams per liter | 0.085 | 0.0049 | 5.5 milligrams/filter paper test substrate | 0.058 |  |  |  |  |  |  |  |
| CC1(C)C(C=C(Cl)Cl)C1C(=O)OC(C#N)c1ccc(F)c(Oc2ccccc2)c1 (stereo not drawn) [Cyfluthrin] | <7.11 × 10^−9 grams per liter | <0.00041 |  | >1000 milligrams/filter paper test substrate | >10.5 |  |  |  |  |  |  |  |
| CC(C)=CC1C(C(=O)OC(C#N)c2cccc(Oc3ccccc3)c2)C1(C)C (stereo not drawn) [Cyphenothrin] | 1.85 × 10^−8 grams per liter | 0.0011 | ˜0.011 | ˜1000 milligrams/filter paper test substrate | ˜10.5 |  |  |  |  |  |  |  |
| COP(=O)(OC)OC=C(Cl)Cl [DDVP] | 2.63 × 10^−5 grams per liter | 1.53 | 0.60 | 40 milligrams/filter paper test substrate | 0.42 | achieved |  |  |  |  |  |  |
| CCN(CC)C(=O)c1cccc(C)c1 [DEET, N,N-diethyl-meta-toluamide] | 1.72 × 10^−5 grams per liter | 1.00 | 1.00 | 95 milligrams/filter paper test substrate | 1.00 |  |  |  |  |  |  |  |
| C=CCC1=C(C)C(OC(=O)[C@@H]2[C@@H](C=C(C)C)C2(C)C)CC1=O (stereo partly drawn) [Esbiothrin] | 5.35 × 10^−6 grams per liter | 0.311 | 0.0146 | 4.5 milligrams/filter paper test substrate | 0.047 | achieved |  |  |  |  |  |  |
| CC1(C)C(C=C(Cl)Cl)C1C(=O)OCc1cccc(Oc2ccccc2)c1 (stereo not drawn) [Permethrin] | 7.11 × 10^−9 grams per liter | 0.00041 | >0.004 | >1000 milligrams/filter paper test substrate | >10.5 |  |  |  |  |  |  |  |
| C#CCC1=C(C)C(OC(=O)C2C(C=C(C)C)C2(C)C)CC1=O (stereo not drawn) [Prallethrin] | 5.80 × 10^−7 grams per liter | 0.034 | 0.0020 | 5.5 milligrams/filter paper test substrate | 0.058 | achieved | failed to achieve |  |  |  |  |  |
| CNC(=O)Oc1ccccc1OC(C)C [Propoxur (Baygon), Propoxur] |  |  |  | >120 milligrams/filter paper test substrate | >1.26 |  |  |  |  |  |  |  |
| CC1(C)[C@H](C=C(Cl)Cl)[C@H]1C(=O)OCc1c(F)c(F)cc(F)c1F [Transfluthrin] | 6.09 × 10^−8 grams per liter | 0.0035 | 0.00002 | 0.57 milligrams/filter paper test substrate | 0.0059 | achieved | 30 min | never achieved | never achieved | never achieved | 20 min | 80 min |
| C#CC(OC(=O)C1C(C=C(C)C)C1(C)C)/C(C)=C/CC (stereo not drawn) [Vaporthrin] | 9.75 × 10^−6 grams per liter | 0.567 | 0.033 | 5.3 milligrams/filter paper test substrate | 0.058 | achieved |  |  |  |  |  |  |
| Pentecychlothrin [Pentecychlothrin (Zhong X1)] | 3.64 × 10^−7 grams per liter | 0.021 | 0.0018 | 8.1 milligrams/filter paper test substrate | 0.085 |  |  |  |  |  |  |  |
